We go through 16 molecules from US20220257774A1, “AROMATIC AMINE AR AHD BET TARGETING PROTEIN DEGRADATION CHIMERA COMPOUND AND USE” (HINOVA PHARMACEUTICALS INC., priority 2019, published 2022).

Where two headings read alike, the source gives them in different places.

This experiment relates to LNCaP/AR cells. Briefly: Inhibition of the proliferation of LNCap/AR cells (CCK-8). The format is cell-based. To be noted: read-out: LNCap/AR IC50. An excerpt:
1. Biological Assay of the Inhibition on the Proliferation of LNCap/AR Cells
(1) Experimental materials and instruments: LNCaP/AR cell line and 22RV1 cell line (provided by Sichuan Kangcheng Biotechnology Co., Ltd.) Fetal bovine serum FBS (Gibco, Cat. No. 10099-141) 0.01M PBS (Biosharp, Cat. No. 162262) RIPM1640 medium (Hyclone, Cat. No. 308090.01) Penicillin-Streptomycin (Hyclone, Cat. No. SV30010) Cell counting kit-8 (Signalway Antibody, Cat. No. CP002) DMSO (Sigma, Cat. No. D5879) Centrifuge Tube, 15 ml (Excell Bio, Cat. No. CS015-0001) Cell Culture Dish, (Excell Bio, Cat. No. CS016-0128) 96-well cell culture plate (Corning, Cat. No. 3599) Microplate reader (Thermo Multiskan MK3 type)
(2) Experimental Methods:
a. Preparation of Buffer Cell culture medium: RIPM1640 medium, 10% FBS, 1% Pen Strep: PBS buffer: PBS powder was dissolved in 2 L of ultrapure water and sterilized. b. Experimental Procedures 1) LNCaP/AR cells were subcultured in cell culture media, and then the cells in good growth condition were seeded in a 96-well plate at 80 μL/well (1000 cells/well), and cultured overnight in a 37° C., 5% CO2 cell incubator. 2) The drug was prepared into a 10 mM stock solution with dimethyl sulfoxide (DMSO). Prior to use, the stock solution was diluted in a ratio of […] with DMSO, and then diluted at a 3-fold gradient to obtain 9 serial concentrations. Then, each concentration of compound was further diluted in a ratio of 1:200 with the culture medium (to ensure that the DMSO concentration in the culture system was 0.1%), and two wells were set for each concentration. 20 μL of the diluted compound solution was added to the well of the cell culture (with a final concentration of 10 μM, 3.3 μM, 1.1 μM . . . ), and then the plate was gently tapped to thoroughly mix. In addition, the experiment included 3 negative control wells only containing cells and 3 blank control wells only containing culture medium (6 wells were each added with DMSO diluted in a ratio of 1:200 with 20 μL of culture medium). c. Result Detection: 1) After culturing for 6 days, 10 μL of CCK-8 was added to each well, and the plate was further incubated for 1 h in a 37° C., 5% CO2 cell incubator. 2) The absorbance (OD value) was measured at 450 nm with a multifunctional microplate reader. 3) The data was analyzed by the Dose-response-inhibition equation in the software GraphPad Prism5, and the IC50 value was obtained. 2. Biological assay of the inhibition on the proliferation of other drug-resistant prostate cancer cells

[1] abbreviates: 144 h, LNCaP/AR cells, 6 days culture, CCK-8.

Consider `CC(=O)O[C@@H]1C[C@@H](C(=O)N[C@@H](C)c2ccc(-c3scnc3C)cc2)N(C(=O)[C@@H](NC(=O)COCCCCCN(c2ccc(-n3ccnc3)cc2)c2cc3onc(C)c3cc2C)C(C)(C)C)C1` [Compound 18, (3R,5S)-1-((S)-2-(2-((5-((4-(1H-imidazol-1-yl)phenyl)(3,5-dimethylbenzo[d]isoxazol-6-yl)amino)pentyl)oxy)acetamido)-3,3-dimethylbutyryl)-5-((S)-1-(4-(4-methylthiazol-5-yl)phenyl)ethyl)carbamoyl)pyrrolidine-3-yl acetate], for which, under setting [1], the IC50 is > 2000 nM.

As to `Cc1ccc(-c2c(C)noc2C)cc1N(CCCCCOCC(=O)N[C@H](C(=O)N1C[C@H](O)C[C@H]1C(=O)N[C@@H](C)c1ccc(-c2scnc2C)cc1)C(C)(C)C)c1ccc(-n2ccnn2)c(Br)c1` [Compound 19], under setting [1], the IC50 was < 100 nM.

Consider `CC(=O)O[C@@H]1C[C@@H](C(=O)N[C@@H](C)c2ccc(-c3scnc3C)cc2)N(C(=O)[C@@H](NC(=O)COCCCCCN(c2ccc(-n3ccnn3)c(Br)c2)c2cc(-c3c(C)noc3C)ccc2C)C(C)(C)C)C1` [Compound 20, (3R,5S)-1-((S)-2-(2-((5-((3-bromo-4-(1H-1,2,3-triazol-1-yl)phenyl)(5-(3,5-dimethylisoxazol-4-yl)-2-methylphenyl)amino)pentyl)oxy)acetamido)-3,3-dimethylbutyryl)-5-((S)-1-(4-methylthiazol-5-yl)phenyl)ethyl)carbamoyl)pyrrolidine-3-yl acetate], for which the IC50 under setting [1] is < 100 nM.

With `Cc1ccc(-c2c(C)noc2C)cc1N(CCCCCOCC(=O)N[C@H](C(=O)N1C[C@H](O)C[C@H]1C(=O)N[C@@H](C)c1ccc(-c2scnc2C)cc1)C(C)(C)C)c1ccc(-n2ccnc2)c(C(F)(F)F)c1` [Compound 21, (2S,4R)-1-((S)-2-(2-((5-((4-(1H-imidazol-1-yl)-3-(trifluoromethyl)phenyl)(5-(3,5-dimethylisoxazol-4-yl)-2-methylphenyl)amino)pentyl)oxy)acetamido)-3,3-dimethylbutyryl)-4-hydroxy-N—((S)-1-(4-(4-methylthiazol-5-yl)phenyl)ethyl)pyrrolidine-2-carboxamide], the IC50 (LNCaP/AR, 144 h) lay within 501 to 2000 nM.

On to `CC(=O)O[C@@H]1C[C@@H](C(=O)N[C@@H](C)c2ccc(-c3scnc3C)cc2)N(C(=O)[C@@H](NC(=O)COCCCCCN(c2ccc(-n3ccnc3)c(C(F)(F)F)c2)c2cc(-c3c(C)noc3C)ccc2C)C(C)(C)C)C1` [Compound 22, (3R,5S)-1-((S)-2-(2-((5-((4-(1H-imidazol-1-yl)-3-(trifluoromethyl)phenyl)(5-(3,5-dimethylisoxazol-4-yl)2-methylphenyl)amino)pentyl)oxy)acetamido)-3,3-dimethylbutyryl)-5-((S)-1-(4-methylthiazol-5-yl)phenyl)ethyl)carbamoyl)pyrrolidine-3-yl acetate], for which the IC50 under setting [1] was 501 to 2000 nM.

For the molecule `CC(=O)O[C@@H]1C[C@@H](C(=O)N[C@@H](C)c2ccc(-c3scnc3C)cc2)N(C(=O)[C@@H](NC(=O)CN2CCC(CCN(c3ccc(-n4ccnc4)c(Br)c3)c3cc(-c4c(C)noc4C)ccc3C)CC2)C(C)(C)C)C1` [Compound 23, (3R,5S)-1-((S)-2-(2-(4-(2-((3-Bromo-4-(1H-imidazol-1-yl)phenyl)(5-(3,5-dimethylisoxazol-4-yl)-2-methylphenyl)amino)ethyl)piperidin-1-yl)acetamido)-3,3-dimethylbutanol)-5-((S)-1-(4-methylthiazol-5-yl)phenyl)ethyl)carbamoyl)pyrrolidine-3-yl acetate], the IC50 (LNCaP/AR cells, 6 days culture, CCK-8) is > 2000 nM.

Consider `Cc1ccc(-c2c(C)noc2C)cc1N(CCC1CCN(CC(=O)N[C@H](C(=O)N2C[C@H](O)C[C@H]2C(=O)N[C@@H](C)c2ccc(-c3scnc3C)cc2)C(C)(C)C)CC1)c1ccc(-n2ccnc2)c(Br)c1` [Compound 24], for which, under setting [1], the IC50 is > 2000 nM.

As for `Cc1ccc(-c2c(C)noc2C)cc1N(CCCCCOCC(=O)Nc1cccc2c1CN(C1CCC(=O)NC1=O)C2=O)c1ccc(-n2ccnc2)c(Br)c1` (stereo not shown) [Compound 25, 2-((5-((3-Bromo-4-(1H-imidazol-1-yl)phenyl)(5-(3,5-Dimethylisoxazol-4-yl)-2-methylphenyl)amino)pentyl)oxy)-N-(2-(2,6-dioxopiperidin-3-yl)-1-oxoisoindol-4-yl)acetamide], under setting [1], the IC50 was > 2000 nM.

In the case of `Cc1ccc(-c2c(C)noc2C)cc1N(CCCCCOCC(=O)N[C@H](C(=O)N1C[C@H](O)C[C@H]1C(=O)N[C@@H](C)c1ccc(-c2scnc2C)cc1)C(C)(C)C)c1ccc(Br)cc1` [Compound 26, (2S,4R)-1-((S)-2-(2-((5-((4-Bromophenyl)(5-(3,5-Dimethylisoxazol-4-yl)-2-methylphenyl)amino)pentyl)oxy)acetamido)-3,3-dimethylbutyryl)-4-hydroxy-N—((S)-1-(4-(4-methylthiazol-5-yl)phenyl)ethyl)pyrrolidine-2-formamide], under setting [1], the IC50 fell in the range of 101 to 500 nM.

Turning to `Cc1ccc(-c2c(C)noc2C)cc1N(CCCCCOCC(=O)Nc1cccc2c1CN(C1CCC(=O)NC1=O)C2=O)c1ccc(Br)cc1` (stereo not shown) [Compound 27, 2-((5-((4-Bromophenyl)(5-(3,5-Dimethylisoxazol-4-yl)-2-methylphenyl)amino)pentyl)oxy)-N-(2-(2,6-dioxopiperidin-3-yl)-1-oxoisoindolin-4-yl)acetamide], the IC50 under setting [1] was 501 to 2000 nM.

As to `Cc1ccc(-c2c(C)noc2C)cc1N(CCC1CCN(c2ccc3c(c2)C(=O)N(C2CCC(=O)NC2=O)C3=O)CC1)c1ccc(C2(C#N)CC2)cc1` (stereo not shown) [Compound 28, 1-(4-((5-(3,5-Dimethylisoxazol-4-yl)-2-methylphenyl)(2-(1-(2-(2,6-dioxopiperidin-3-yl)-1,3-dioxoisoindolin-5-yl)piperidin-4-yl)ethyl)amino)phenyl)cyclopropane-1-carbonitrile], the IC50 under setting [1] was in the range of 101 to 500 nM.

In the case of `Cc1ccc(-c2c(C)noc2C)cc1N(CCC1CCN(c2cc3c(cc2F)C(=O)N(C2CCC(=O)NC2=O)C3=O)CC1)c1ccc(C2(C#N)CC2)cc1` (stereo not shown) [Compound 29, 1-(4-((5-(3,5-Dimethylisoxazol-4-yl)-2-methylphenyl)(2-(1-(2-(2,6-dioxopiperidin-3-yl)-6-fluoro-1,3-dioxoisoindolin-5-yl)piperidin-4-yl)ethyl)amino)phenyl)cyclopropane-1-carbonitrile], the IC50 under setting [1] was > 2000 nM.

As to `Cc1ccc(-c2c(C)noc2C)cc1N(CCCC1CCN(c2ccc3c(c2)C(=O)N(C2CCC(=O)NC2=O)C3=O)CC1)c1ccc(C2(C#N)CC2)cc1` (stereo not shown) [Compound 30, 1-(4-((5-(3,5-Dimethylisoxazol-4-yl)-2-methylphenyl)(3-(1-(2-(2,6-dioxopiperidin-3-yl)-1,3-dioxoisoindolin-5-yl)piperidin-4-yl)propyl)amino)phenyl)cyclopropane-1-nitrile], under setting [1], the IC50 was in the range of 101 to 500 nM.

As for `Cc1ccc(-c2c(C)noc2C)cc1N(CCCCCNc1ccc2c(c1)CN(C1CCC(=O)NC1=O)C2=O)c1ccc(-c2c(C)noc2C)cc1` (stereo not shown) [Compound 33, 3-(5-((5-((5-(3,5-Dimethylisoxazol-4-yl)-2-methylphenyl) (4-(3,5-dimethylisoxazol-4-yl)phenyl)amino)pentyl)amino)-1-oxoisoindolin-2-yl)piperidine-2,6-dione], the IC50 under setting [1] was in the range of 101 to 500 nM.

With `CC(=O)O[C@@H]1C[C@@H](C(=O)N[C@@H](C)c2ccc(-c3scnc3C)cc2)N(C(=O)[C@@H](NC(=O)COCC#CCN(c2ccc(-n3ccnc3)cc2)c2cc(-c3c(C)noc3C)ccc2C)C(C)(C)C)C1` [Compound 46, (3R,5S)-1-((S)-2-(2-((4-((4-(1H-imidazol-1-yl)phenyl)(5-(3,5-dimethylisoxazol-4-yl)-2-methylphenyl)amino)but-2-yn-1-yl)oxy)acetamido)-3,3-dimethylbutanol)-5-((S)-1-(4-methylthiazol-5-yl)phenyl)ethyl)carbamoyl)pyrrolidine-3-yl acetate], the IC50 (LNCaP/AR, 144 h) is > 2000 nM.

As for `CC(=O)O[C@@H]1C[C@@H](C(=O)N[C@@H](C)c2ccc(-c3scnc3C)cc2)N(C(=O)[C@@H](NC(=O)CN2CCN(CCN(c3ccc(-n4ccnc4)c(Br)c3)c3cc(-c4c(C)noc4C)ccc3C)CC2)C(C)(C)C)C1` [Compound 47, (3R,5S)-1-((S)-2-(2-(4-(2-((3-bromo-4-(1H-imidazol-1-yl)phenyl)(5-(3,5-dimethylisoxazol-4-yl)-2-methylphenyl)amino)ethyl)piperazin-1-yl)acetamido)-3,3-dimethylbutanol)-5-((S)-1-(4-methylthiazol-5-yl)phenyl)ethyl)carbamoyl)pyrrolidine-3-yl acetate], the IC50 under setting [1] fell in the range of 501 to 2000 nM.
